# Where “and” joins values, the source holds several entries; their conditions need not be identical. Identical values can stand only once.
# Biological target: T1, Angiotensin-converting enzyme (Oryctolagus cuniculus, UniProt P12822)
# T1 sequence (P12822 whole entry): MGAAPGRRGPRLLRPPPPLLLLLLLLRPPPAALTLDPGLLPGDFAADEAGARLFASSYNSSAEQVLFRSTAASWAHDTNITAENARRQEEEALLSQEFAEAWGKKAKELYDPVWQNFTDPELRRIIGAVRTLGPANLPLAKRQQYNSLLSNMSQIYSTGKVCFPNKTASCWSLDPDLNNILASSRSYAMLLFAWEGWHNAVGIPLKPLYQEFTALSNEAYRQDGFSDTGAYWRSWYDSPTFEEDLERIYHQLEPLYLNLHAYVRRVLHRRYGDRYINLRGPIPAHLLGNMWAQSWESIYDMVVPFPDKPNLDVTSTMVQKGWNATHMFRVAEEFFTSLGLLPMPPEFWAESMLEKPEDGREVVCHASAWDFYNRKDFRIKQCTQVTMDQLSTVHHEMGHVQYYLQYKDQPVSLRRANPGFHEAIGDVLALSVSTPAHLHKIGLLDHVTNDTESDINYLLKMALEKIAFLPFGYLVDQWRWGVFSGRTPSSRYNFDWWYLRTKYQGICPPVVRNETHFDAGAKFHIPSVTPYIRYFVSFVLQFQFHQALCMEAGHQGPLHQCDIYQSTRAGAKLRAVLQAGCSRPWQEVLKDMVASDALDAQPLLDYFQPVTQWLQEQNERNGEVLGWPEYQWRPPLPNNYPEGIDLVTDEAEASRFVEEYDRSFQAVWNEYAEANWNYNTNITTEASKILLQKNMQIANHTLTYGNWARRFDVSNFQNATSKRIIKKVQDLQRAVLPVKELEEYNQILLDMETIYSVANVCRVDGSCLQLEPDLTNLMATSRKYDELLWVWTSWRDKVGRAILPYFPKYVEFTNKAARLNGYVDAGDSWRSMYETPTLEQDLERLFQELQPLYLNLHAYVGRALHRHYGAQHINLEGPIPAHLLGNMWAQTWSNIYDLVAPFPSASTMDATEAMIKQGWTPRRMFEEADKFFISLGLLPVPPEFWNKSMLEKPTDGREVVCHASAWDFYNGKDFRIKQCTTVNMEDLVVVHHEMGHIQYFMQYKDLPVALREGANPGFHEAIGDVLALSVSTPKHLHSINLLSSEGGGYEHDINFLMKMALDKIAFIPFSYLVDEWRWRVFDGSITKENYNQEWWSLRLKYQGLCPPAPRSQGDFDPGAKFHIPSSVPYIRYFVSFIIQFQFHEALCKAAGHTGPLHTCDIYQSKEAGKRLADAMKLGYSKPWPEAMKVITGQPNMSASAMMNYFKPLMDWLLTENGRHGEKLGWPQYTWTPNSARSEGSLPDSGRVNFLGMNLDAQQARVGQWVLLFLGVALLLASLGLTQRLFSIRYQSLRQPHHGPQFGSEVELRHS
# Experiment: Ability to inhibit Angiotensin I converting enzyme was determined
row,SMILES,IC50
1,O=C(O)CN1CCCC(CS)C1=O (stereo not given),1500 nM and 3400 nM
2,O=C(O)CN1CCCCC(CS)C1=O (stereo not given),170 nM
3,CC(C(=O)O)N1CCCCCC(CS)C1=O (stereo not given),53 nM

# Second part, the compound after the results:
row,IC50,SMILES
1,4 nM,O=C(O)CN1C(=O)C(CS)CCCc2ccccc21 (stereo not given)
2,9 nM,O=C(O)CN1C(=O)C(CS)CCc2ccccc21 (stereo not given)
